Data set [1] deals with Mycobacterium tuberculosis. In words: Antimycobacterial activity against Mycobacterium tuberculosis H37Rv in GAST medium with low Fe level measured at day 14 by Alamar Blue assay. The format is functional. The note with it: 336 h. On the technique in general: Resazurin is reduced to fluorescent resorufin, in cell work by metabolically active cells.
For data set [2], the system named is Mycobacterium tuberculosis. In words: Antimycobacterial activity against Mycobacterium tuberculosis H37Rv in GAST-Fe medium measured at day 14 by Alamar Blue assay. The note with it: 336 h. Format: functional.
The nature of data set [3]: Kinetic solubility of the compound at pH 7.4 after 2 hrs by shake flask method-based HPLC-DAD analysis. Format: physicochemical. Conditions: buffer, read-out: Kinetic_solubility.
Data set [4] is described as follows: Metabolic stability in rat liver microsomes assessed as compound remaining at 0.1 uM measured at 30 mins by LC-MS/MS analysis. The format is ADME. The note with it: read-out: Stability. In general terms: Liver microsomes are a subcellular fraction often used to study metabolism.
Data set [5] deals with CHO. In words: Cytotoxicity against CHO cells assessed as cell viability by MTT assay. Conditions: Cricetulus griseus. Format: cell-based. In general terms: Tetrazolium assays rely on reduction of a dye to a coloured formazan, in cell work by metabolically active cells.
Data set [6] is described as follows: Metabolic stability in mouse liver microsomes assessed as compound remaining at 0.1 uM measured at 30 mins by LC-MS/MS analysis. The format is ADME. Conditions: read-out: Stability.
Data set [7] is described as follows: Metabolic stability in human liver microsomes assessed as compound remaining at 0.1 uM measured at 30 mins by LC-MS/MS analysis. Format: ADME. Conditions: read-out: Stability.
For data set [8], the system named is Mycobacterium tuberculosis. Briefly: Antimycobacterial activity against Mycobacterium tuberculosis H37Rv in 7H9/ADC/Tween medium measured at day 14 by Alamar Blue assay. The format is functional. Conditions: 336 h.

In brackets after ≈: the same amount, converted by molar mass. Where only a bound is given, the exact number is not on record here.

Broadly, the MIC99 is an inhibitory concentration at the 99% level, which refers to growth in some studies and to a panel of isolates in others. A high value points to weaker potency. In general, IC50 refers to the concentration needed to halve the response being measured. Take `Cc1cc(NCc2ccccn2)n2nc(C)c(-c3ccccc3)c2n1`: the MIC99 was above 160 µM in data set [1], above 160 µM in data set [2] and 5 µM (≈ 1.65 µg/mL) in data set [8]. Also, the solubility kinetic at 2 h in data set [3] was below 5 µM. For the same compound, the remaining at 0.5 h, 0.1 µM was determined as 39% in data set [4], 6.2% in data set [6] and 51.9% in data set [7]. In data set [5], the IC50 is 34 µM.
For the compound `Cc1cc(NCc2ccccn2)n2ncc(-c3ccc(F)c(Cl)c3)c2n1`, the MIC99 is above 160 µM in data set [1], above 160 µM in data set [2] and 1.25 µM (≈ 0.46 µg/mL) in data set [8]. Also, in data set [3], the solubility kinetic at 2 h was below 5 µM. Moreover, the IC50 in data set [5] was 20 µM.
Regarding `Cc1cc(NCc2ccc(F)cn2)n2nc(C)c(-c3ccccc3)c2n1`, the MIC99 in data set [1] is above 160 µM; in data set [2] it was 20 µM (≈ 6.95 µg/mL); in data set [8] it was 5 µM (≈ 1.74 µg/mL). For the same compound, the solubility kinetic at 2 h in data set [3] is below 5 µM. Also, the remaining at 0.5 h, 0.1 µM in data set [4] was determined as 45.5%; in data set [6], 5.3%; in data set [7] it was 31.4%. For the same compound, the IC50 in data set [5] worked out at 22 µM.
As for `Cc1cc(NCc2ccccn2)n2ncc(-c3ccccc3F)c2n1`, the MIC99 in data set [1] was above 160 µM; in data set [2], above 160 µM; in data set [8], 2.5 µM (≈ 0.833 µg/mL). Moreover, the solubility kinetic at 2 h in data set [3] is 5 µM (≈ 1.67 µg/mL). The IC50 in data set [5] is 5.45 µM.
`Cc1cc(NCc2ccccn2)n2ncc(-c3cccc(Cl)c3)c2n1`: the figures for the MIC99 in data set [1], in data set [2] and in data set [8] were above 160 µM, above 160 µM and 2.5 µM (≈ 0.875 µg/mL), respectively. The solubility kinetic at 2 h in data set [3] was below 5 µM. Further, the IC50 in data set [5] came to 3.78 µM.
